Among the data in patent US11179348B2, “Combination comprising pterostilbene for the treatment of cancer” (FUNDACIÓN UNIVERSIDAD CATÓLICA DE VALENCIA SAN VICENTE …, priority 2015, dated 2021) are Viable cells values, retold here.

In the assay the test system is AsPC-1 cells isolated from tumor-bearing mice. The assay can be described thus: Chemosensitization of cultured AsPC-1 cells isolated from xenografts. The class given is cell-based, human. The following applies: 72 h-cultured, PL 1 μM, Chemo 0.125 μM PAC.PBP and 25 μM GTB, Pter = in vivo pretreatment. On the procedure:
FIGS. 18-25. Effect of piperlongumine and I-BET762, as GSH depleting and chemosensitizing agents, in in vitro growing human melanoma, pancreatic, breast, lung, liver, prostate, ovarian, and colorectal cancer cells. Cancer cells, isolated from Pter-treated tumor-bearing mice, were cultured as indicated under Methods. Chemotherapy (0.25 μM PAC.PBP in A2058 melanoma and MDA-MB-231 breast carcinoma cells; 0.125 μM PAC.PBP and 25 μM GTB in AsPC-1 pancreatic cancer cells; 1 μM VRB and 15 μM cisPt in A459 lung carcinoma cells; 0.15 μM DXR in HepG2 hepatocellular carcinoma cells; 15 nM DCT in PC-3 prostate carcinoma cells; 0.15 μM PAC.PBP and 25 μM CarboPt in SK-OV-3 ovarian carcinoma cells; 3 μM 5-FU, 1 μM FA and 0.6 μM IRI in HT-29 colorectal carcinoma cells) was added to the cultured flasks 24 h after seeding. […]
Human A2058, MeWo and MelJuso melanoma cells, and mouse AtT-20 pituitary corticotroph tumor cells were from the American Type Culture Collection (ATCC). […] Cell numbers were determined using a Coulter Counter (Coulter Electronic Inc., Miami, Fla.). […] Cellular viability was assessed as previously reported (Mena, S. et al. Clin Cancer Res 13, 2658-2666 (2007)), by measuring trypan blue exclusion and leakage of lactate dehydrogenase activity. […]
(In general: Xenograft models place foreign cells or tissue in a host animal.)

Consider `COc1cc(/C=C/c2ccc(O)cc2)cc(OC)c1` [Pter, trans-3,5-dimethoxy-4′-hydroxystilbene], for which the Viable cells is 1249 ± 206 ×10^6.
